According to patent US20250017998A1, “SP-8356, EMODIN, AND IT603 ENHANCE BEIGE ADIPOCYTE ACTIVITY AND ALLEVIATE OBESITY AND DIABETES VIA UNCOUPLING PROTEIN 1 (UCP1)-INDEPENDENT MECHANISM” (The Chinese University of Hong Kong, priority 2023, published 2025):

Legend:
LETMD1 [1] = assay: RNA-seq of LETMD1 mRNA in hiPSC-derived beige adipocytes; assay type: cell-based, human; settings: 0.1 μM, 24 h, RNA sequencing (FIG. 1B)
Description: (§1) FIGS. 1A-1C. Generation and characterization of the LETMD1-tdTomato reporter hiPSC. (FIG. 1A) Schematic illustration of the knock-in design for the LETMD1-tdTomato reporter hiPSCs. (FIG. 1B) hiPSCs were differentiated into beige adipocytes and treated with β3 adrenergic receptor (β3-AR) agonist Mirabegron (0.1 μM) for 24 h and subjected to RNA-seq. The fold change of LETMD1 and its analogue LETM1 were plotted. (FIG. 1C) Representative images of tdTomato fluorescence intensity in LETMD1 reporter hiPSC-derived beige adipocytes treated with or without Mirabegron (0.1 μM) for 24 h.
A total of 20 days was required for hiPSC differentiation into beige adipocytes. We used BMP4 (10 ng/mL) and ActivinA (25 ng/mL) from day 0 to day 4 to induce mesodermal differentiation in the first stage. We then induce mesodermal progenitors to differentiate into adipocyte progenitors with insulin ([…]), isobutylmethylxanthine (IBMX) (500 μmol/L), dexamethasone (1 μmol/L), and indomethacin (50 μmol/L) from day 4 to day 10. […]
(§2) To monitor the endogenous LETMD1 expression in human iPSCs with ease, we generated a fluorescent protein-based reporter human iPS cell line using a CRISPR/Cas9-mediated knock-in (KI) system (FIG. 1A). […] This cell line enables us to monitor the endogenous expression of LETMD1 in a high-throughput manner using the red fluorescence intensity as a surrogate.

LETMD1 [2] = assay: LETMD1-tdTomato reporter hiPSC-derived beige adipocytes, red fluorescence; assay type: cell-based, human; settings: 0.1 μM, 24 h, LETMD1 reporter hiPSC-derived beige adipocytes (FIG. 1C)
Description: as §1
A total of 20 days was required for hiPSC differentiation into beige adipocytes. […]
LETMD1 reporter hiPSCs were plated in the 96-well plates and differentiated into beige adipocytes. […] After that, the red fluorescent signals were quantified by the ThermoFisher (Waltham, MA) Varioskan Multimode Microplate Reader. […] measurement for each compound was normalized to the vehicle control group.
as §2

[3] = test system: UCP1 knockout human beige adipocytes; assay: Seahorse Mitochondrial Stress Test, oxygen consumption rate in UCP1 knockout human beige adipocytes; assay type: cell-based; settings: 1 μM, 24 h, UCP1 knockout hiPSC-derived beige adipocytes, vs DMSO (FIGS. 2D-2F)
Description: (§3) FIGS. 2A-2F. SP-8356, emodin, and IT603 increase energy expenditure in human beige adipocytes in a UCP1-independent manner. WT or UCP1 knockout hiPSCs were differentiated to beige adipocytes followed by treatment with SP-8356 (1 μM), Emodin (1 μM), and IT603 (1 μM) for 24 h, respectively. DMSO was used as the vehicle control. The oxygen consumption rate (OCR) was examined by the Seahorse Mitochondrial Stress Test assay. (FIGS. 2A-2C) OCR in WT human beige adipocytes treated with SP-8356, Emodin, and IT603, respectively. (FIGS. 2D-2F) OCR in UCP1 knockout human beige adipocytes treated with SP-8356, Emodin, and IT603, respectively. *p<0.05, **p<0.01. A total of 20 days was required for hiPSC differentiation into beige adipocytes. We used BMP4 (10 ng/mL) and ActivinA (25 ng/mL) from day 0 to day 4 to induce mesodermal differentiation in the first stage. We then induce mesodermal progenitors to differentiate into adipocyte progenitors with insulin ([…]), isobutylmethylxanthine (IBMX) (500 μmol/L), dexamethasone (1 μmol/L), and indomethacin (50 μmol/L) from day 4 to day 10. Eventually, mature beige adipocytes will be formed by insulin (1 μg/mL) induction on day 10 to 20. […] were plated in the XF96 plates (Agilent Technologies, Inc., Santa Clara, CA) and differentiated into the beige adipocytes. The XF Cell Mito Stress Test Kit (Seahorse Bioscience, 103015-100) was used to perform the assay by following the manufacturer's instructions.

[4] = test system: WT human beige adipocytes; assay: Seahorse Mitochondrial Stress Test, oxygen consumption rate in WT human beige adipocytes; assay type: cell-based; settings: 1 μM, 24 h, WT hiPSC-derived beige adipocytes, vs DMSO (FIGS. 2A-2C)
Description: as §3

Structure (SMILES)	mRNA level of LETMD1 (LETMD1 [1])	density of tdTomato fluorescent protein (LETMD1 [2])	oxygen consumption rate (OCR) [3]	oxygen consumption rate (OCR) [4]
Nc1nc(CC(=O)Nc2ccc(CCNC[C@H](O)c3ccccc3)cc2)cs1 [Mirabegron]	significantly increased	increased significantly		
Cc1cc(O)c2c(c1)C(=O)c1cc(O)cc(O)c1C2=O [emodin]			enhanced the OCR	showed most significant capacity to elevate the OCR
COc1cc(/C=C/C2=CC(=O)[C@H]3C[C@@H]2C3(C)C)cc(O)c1O [SP-8356]			enhanced the OCR	showed most significant capacity to elevate the OCR
COc1cc(Br)cc(/C=C2/NC(=S)NC2=O)c1O [IT603]			enhanced the OCR	showed most significant capacity to elevate the OCR
